{
  "source": "patent US20050124618A1",
  "about": "“Methods of modulating angiogenesis and cancer cell proliferation” (priority 2003, published 2005)",
  "key": {"[1]": {"test_system": "rat cornea", "assay": "Rat cornea pocket angiogenesis assay (growth factor pellets)", "format": "in vivo", "method": "(i) Preparation of sustained-release polymer: Sustained-release polymer pellets were prepared by making a 1:1 mix of a 12% solution in ethanol of the polymer (Hydron polyhydroxyethylmethacrylate), with saline containing the growth factors. The growth factors bFGF, VEGF, and EGF were dissolved at a concentration of 125 ng/μl. […] 2 μl of these solutions were added to each pellet. Thus, a pellet containing 250 ng of a single growth factor was implanted at random in the right or left eye. The other eye was implanted with a pellet containing the same dose of growth factor+HET0016. In some rats the pellet contained VEGF alone and VEGF+DDMS. 20 μg of the stable 20-HETE agonist analog WIT003 was implanted in one eye to determine whether it induces angiogenesis. […] 9 μl of the 1:1 Hydron/treatment mixture was placed on the ends of 1.5-cm rods. Each pellet contained 250 ng of its respective growth factor. For bFGF we used sucralfate to stabilize and allow sustained release of this growth factor (Volkin D B et al., Biochim Biophys Acta 1993, 1203:18-26). After drying the pellets for 1 hour, they were ready to be implanted into the cornea of rats.\n(ii) Pellet implantation: The rats were anesthetized IM with ketamine (80 mg/kg) and xylazine (10 mg/kg). The eyes were topically anesthetized with 0.5% proparacaine (Ophthetic, Alcon, Tex.) and the globes proptosed with a jeweler's forceps. Using an operating microscope, a central intrastromal linear keratotomy, approximately 1.5 mm in length, was performed with a surgical blade (Bard-Parker #11; Becton Dickinson, Franklin Lake, N.Y.) parallel to the insertion of the lateral rectus muscle. A curved iris spatula (No. 10093-13, Fine Science Tools, Belmont, Calif.) approximately 1.5 mm wide and 5 mm long was inserted under the lip of the incision and gently pushed through the stroma toward the temporal limbus of the eye. The distance between the limbus and the base of the pocket was kept at 1.0±0.1 mm. The pellet was advanced to the temporal end of the pocket. Antibiotic ointment (erythromycin) was applied to the anterior surface of the eye.\n(iv) Quantitation of corneal neovascularization: Seven days after pellet implantation, the rats were deeply anesthetized as previously described with ketamine and xylazine. The left ventricle was cannulated and the animal was perfused with 20-25 ml saline through the left ventricle followed by 20-25 ml India ink (waterproof drawing ink, Sanford, Bellwood, Ill.). The eyes were marked for orientation, enucleated and placed in 4% formalin for 24 hours. The cornea was dissected free from the surrounding globe and underlying iris, bisected, and loosely mounted between two glass slides, thus gently flattening the cornea. These flat mounts were examined microscopically using a Nikon Diaphot Epi-fluor 2 microscope attached to a CCD video camera and the images were digitized and saved using a computer.\nNeovascularization was determined by comparing total vessel length in the control and experimental eyes. Vessel length was determined by tracing each vessel from the limbus to the pellet. Total length is the sum of these values in pixels and was determined using conventional image analysis software (Sigma Scan Pro, SPSS, Chicago, Ill.)"}, "[2]": {"test_system": "U251 human glioma cells", "assay": "U251 cell proliferation assay (cell counting)", "format": "cell-based", "method": "Culture Conditions: Cells were routinely maintained in DMEM (Invitrogen) supplemented with 10% heat-inactivated fetal bovine serum (FBS), penicillin (10 IU/ml), streptomycin (10 μg/ml) and 10% non-essential amino acids (all purchased from Invitrogen). Cells were maintained at 37° C. in a humidified incubator containing 5% CO2. They were grown in medium containing 10% FBS, which was then replaced with serum-free medium where U251 cells grow exponentially. Treatments were initiated one day after serum removal.\n(§1) Cell Proliferation Assays: Proliferation studies were performed with cultures plated at a density that ensured exponential growth for at least 5 days. Growth medium was generally replaced by serum-free medium 24 hr after plating. Cells were treated with various concentrations of a given compounds for 24 or 48 hr as described in the Methods. […] Organic solvent never exceeded 0.1% of total culture volume. Cells were harvested by exposure to 0.05% trypsin/EDTA and counted using a hemocytometer."}, "[3]": {"test_system": "HUVECs", "assay": "Proliferation of normal HUVECs (comparison with U251)", "format": "cell-based, human", "conditions": "10 μM HET0016, 48 hrs; DDMS concentration not given", "method": "(§2) Mean values±SD from three separate experiments, each performed in triplicate, are presented. *** indicates p<0.001 from the respective control values.\nas §1"}, "[4]": {"test_system": "primary human keratinocytes", "assay": "Proliferation of primary human keratinocytes (comparison with U251)", "format": "cell-based", "conditions": "10 μM HET0016, 48 hrs; DDMS concentration not given", "method": "as §2, §1"}, "[5]": {"test_system": "CYP4A11 mRNA", "assay": "RT-PCR of CYP4A11 mRNA in U251 cultures", "format": "cell-based, human", "conditions": "100 μM DDMS", "method": "EtOH-treated cultures were used as solvent controls. Briefly, total RNA was isolated with Trizol reagent (Invitrogen) and 1-2 μg RNA was used to synthesize cDNA using a First Strand synthesis kit (Invitrogen). We used PCR primers that specifically recognize CYP4A11, and β-actin-specific primers. A 1 μCi ^32P per sample was added to Platinum PCR Supermix (Invitrogen). The PCR conditions used to amplify CYP4A 11 and β-actin consisted of a precycle of 95° C for 3 min followed by 35 cycles of 95° C for 45 s, 52° C. for 30 s, and 72° C. for 2 min, with final extension at 72° C. for 10 min. The primers used were: β-actin forward primer, 5′-TGCGTGACATTAAGGAGAAG-3′ (SEQ ID NO:3); β-actin reverse primer, 5′-GCT CGT AGC TCT TCT CCA-3′ (SEQ ID NO:4); CYP4A11 forward primer, 5′-CCACCTGGACCAGAGGCCCTACACCACC-3′ (SEQ ID NO:5); CYP4A11 reverse primer, 5′-AGGATATGGGCAGACAGGAA-3′(SEQ ID NO:6). PCR products were subjected to electrophoresis in 5% bis-acrylamide gels and visualized by autoradiography."}, "[6]": {"test_system": "9L rat gliosarcoma cells", "assay": "9L cell proliferation assay (cell counting)", "format": "cell-based", "method": "Culture Conditions: 9L rat gliosarcoma cells were purchased from ATC (Gaithersburg, Md.) and were maintained in DMEM (Invitrogen) supplemented with 10% heat-inactivated fetal bovine serum (FBS), penicillin (10 IU/ml), streptomycin (10 μg/ml) and 10% non-essential amino acids (all purchased from Invitrogen). Cells were maintained at 37° C. in a humidified incubator containing 5% CO2. They were grown in medium containing 10% FBS, which was then replaced with serum-free medium (give type and source) where 9L cells grow exponentially.\nCell Proliferation Assays: Proliferation studies were performed with cultures plated at a density that ensured exponential growth for at least 5 days. Growth medium were generally replaced by serum free medium 24 hr after plating. […] The concentration of the ethanol added to the media never exceeded 0.1%. Cells were harvested by exposure to a solution of 0.05% Trypsin/EDTA and counted using a hemocytometer."}, "[7]": {"test_system": "CYP4A", "conditions": "read-out: IC50 for inhibition of CYP4A enzyme activity; cited from earlier work"}},
  "note": "“Also recorded” adds a separate entry of the source.",
  "data": [
    {"smiles": "CS(=O)(=O)NC(=O)CCCCCCCCCC=C(Br)Br", "note": "[DDMS, dibromododecenyl methylsulfonimide]", "values": [
      {"measurement": "angiogenic response to inhibitor alone", "setting": "[1]; 20 μg HET0016 or 10 μg DDMS per pellet, no growth factor", "value": "Neither HET0016 nor DDMS alone elicited a response different from saline"},
      {"measurement": "effect on the angiogenic response to VEGF", "setting": "[1]; VEGF 250 ng/pellet + 10 μg DDMS", "value": "as effective as 20 μg HET0016; also recorded: completely inhibits the angiogenic response; also recorded: abolished; also recorded: inhibit angiogenic responses to VEGF"},
      {"measurement": "blockade of U251 cell proliferation", "setting": "[2]; DDMS, concentration not given", "value": "about 60%"},
      {"measurement": "concentration dependence of inhibition of U251 proliferation", "setting": "[2]; various concentrations", "value": "inhibited the proliferation of U251 cancer cells in a dose-dependent manner; also recorded: inhibited the proliferation of U251 cells in a concentration dependent manner"},
      {"measurement": "effect on basal growth or proliferation of normal HUVECs", "setting": "[3]", "value": "Neither DDMS or HET0016 had any effect"},
      {"measurement": "effect on basal growth or proliferation of primary human keratinocytes", "setting": "[4]", "value": "Neither DDMS or HET0016 had any effect"},
      {"measurement": "CYP4A11 transcript levels", "setting": "[5]", "value": "not affected"},
      {"measurement": "effect on 9L cell number", "setting": "[6]; DDMS 10 μM", "value": "significant reduction in cell number"},
      {"measurement": "inhibition of 9L cell proliferation", "setting": "[6]; DDMS, concentration not given", "value": 60, "unit": "%"},
      {"measurement": "IC50", "setting": "[7]", "value": "~10", "unit": "µM"}
    ]}
  ]
}
